# Experimental data reported in patent US10774064B2 (Cadent Therapeutics, Inc., priority 2016, dated 2020).
# Target: T1, small-conductance Ca2+-activated K+ channels (SK channels, subtype 2) (Homo sapiens, UniProt Q9H2S1)
# T1 construct: expressed in transfected cells; host or cells: HEK293
# Assay: whole-cell patch-clamp of ionic current through SK2 channels in HEK293 cells (SC100)
# Format: cell-based
# Conditions: concentration that increases the basal current by 100%; HEK293 cells expressing SK2 channels
# Outline: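 Whole-cell patch-clamp recording of current in HEK293 cells expressing SK2 channels. SC100 is the compound concentration that increases basal current by 100%.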
row,SC100,Compound
1,+ (+ means >1 uM),"CN(C)C(=O)C1CC1c1cc(NC2CCC(F)(F)CC2)nc(-n2ccc(CF)n2)n1 (centres unmarked) [Compound 308, 2-(6-((4,4-difluorocyclohexyl)amino)-2-(3-(fluoromethyl)-1H-pyrazol-1-yl)pyrimidin-4-yl)-N,N-dimethylcyclopropane-1-carboxamide]"
2,++ (++ means 200 nM-1000 nM),"COC(=O)N1CC(Oc2cc(NC3CCC(F)(F)CC3)nc(-n3cc(C)c(CF)n3)n2)C1 [Compound 310, methyl 3-((6-((4,4-difluorocyclohexyl)amino)-2-(3-(fluoromethyl)-4-methyl-1H-pyrazol-1-yl)pyrimidin-4-yl)oxy)azetidine-1-carboxylate]"
3,++ (++ means 200 nM-1000 nM),"CCc1csc(-c2nc(C)cc(NC3CCC(F)(F)CC3)n2)n1 [Compound 279, N-(4,4-difluorocyclohexyl)-2-(4-ethylthiazol-2-yl)-6-methylpyrimidin-4-amine]"
4,++ (++ means 200 nM-1000 nM),"CC(C)C(=O)NCc1cc(NC2CCC(F)(F)CC2)nc(-n2ccc(CF)n2)c1 [Compound 348, N-((2-((4,4-difluorocyclohexyl)amino)-6-(3-(fluoromethyl)-1H-pyrazol-1-yl)pyridin-4-yl)methyl)isobutyramide]"
5,+++ (+++ means <200 nM),"Cc1cc(NC2CCC(F)(F)CC2)nc(-n2cc(C)c(C(F)F)n2)n1 [Compound 246, N-(4,4-difluorocyclohexyl)-2-(3-(difluoromethyl)-4-methyl-1H-pyrazol-1-yl)-6-methylpyrimidin-4-amine]"
6,++ (++ means 200 nM-1000 nM),"Cc1ccn(-c2nc(NCC3(N(C)C)CCC3)cc(NC3CCC(F)(F)CC3)n2)n1 [Compound 157, N4-(4,4-difluorocyclohexyl)-N6-((1-(dimethylamino)cyclobutyl)methyl)-2-(3-methyl-1H-pyrazol-1-yl)pyrimidine-4,6-diamine]"
7,++ (++ means 200 nM-1000 nM),"CCc1ccn(-c2nc(C)cc(NC3CCC(F)(F)CC3)n2)n1 [Compound 197, N-(4,4-difluorocyclohexyl)-2-(3-ethyl-1H-pyrazol-1-yl)-6-methylpyrimidin-4-amine]"
8,++ (++ means 200 nM-1000 nM),"Cc1cc(C)n(-c2cc(NC3COC3)cc(NC3CCC(F)(F)CC3)n2)n1 [Compound 228, N2-(4,4-difluorocyclohexyl)-6-(3,5-dimethyl-1H-pyrazol-1-yl)-N4-(oxetan-3-yl)pyridine-2,4-diamine]"
9,+ (+ means >1 uM),"CCN(c1cc(C)nc(-n2nc(C)cc2C)n1)C1CCC(F)(F)CC1 [Compound 161, N-(4,4-difluorocyclohexyl)-2-(3,5-dimethyl-1H-pyrazol-1-yl)-N-ethyl-6-methylpyrimidin-4-amine]"
10,++ (++ means 200 nM-1000 nM),"Cc1cc(-n2ccc(C)n2)nc(NC2CCC(F)(F)CC2)n1 [Compound 120, N-(4,4-difluorocyclohexyl)-4-methyl-6-(3-methyl-1H-pyrazol-1-yl)pyrimidin-2-amine]"
11,+ (+ means >1 uM),"Cc1cc(C)n(-c2nc(NC3CCC(F)(F)CC3)cc(C(N)=O)n2)n1 [Compound 131, 6-((4,4-difluorocyclohexyl)amino)-2-(3,5-dimethyl-1H-pyrazol-1-yl)pyrimidine-4-carboxamide]"
12,++ (++ means 200 nM-1000 nM),"Cc1csc(-c2nc(NC3CCC(F)(F)CC3)cc([C@@H](C)O)n2)n1 (single isomer, unassigned) [Compound 364]"

# Same assay, conditions: whole-cell patch-clamp, HEK293 cells expressing SK2 channels; concentration that increases the basal current by 100%
row,Compound,SC100 (μM)
1,"Cc1ccn(-c2cc(C(C)OC(=O)N(C)C)cc(NC3CCC(F)(F)CC3)n2)n1 (centres unmarked) [IN11054-003-P1, 1-(2-((4,4-difluorocyclohexyl)amino)-6-(3-methyl-1H-pyrazol-1-yl)pyridin-4-yl)ethyl dimethylcarbamate]",++ (++ means 200 nM-1000 nM)
2,Cc1csc(-c2nc(NC3CCC(F)(F)CC3)cc([S+](C)[O-])n2)n1 (centres unmarked) [IN11054-046-P2],++ (++ means 200 nM-1000 nM)
3,"COc1cc(NC2CCCCC2OC)nc(-c2nc(C)cs2)n1 (centres unmarked) [IN11140-090-P1, 6-methoxy-N-(2-methoxycyclohexyl)-2-(4-methylthiazol-2-yl)pyrimidin-4-amine]",+ (+ means >1 uM)
4,Cc1csc(-c2cc(N(C)C)cc(NC3CCC(F)(F)CC3)n2)n1,++ (++ means 200 nM-1000 nM)
5,"Cc1nsc(-c2nc(NC3CCCCC3)cc(N3CCS(=O)(=O)CC3)n2)n1 [NSSy6202, 4-(6-(cyclohexylamino)-2-(3-methyl-1,2,4-thiadiazol-5-yl)pyrimidin-4-yl)thiomorpholine 1,1-dioxide]",++ (++ means 200 nM-1000 nM)
6,"Cc1ccn(-c2cc(N)nc(NC3CCC(F)(F)CC3)n2)n1 [NSSy6698, N2-(4,4-difluorocyclohexyl)-6-(3-methyl-1H-pyrazol-1-yl)pyrimidine-2,4-diamine]",+ (+ means >1 uM)
7,"Cc1csc(-c2cc(CO)cc(NC3CCC(F)(F)CC3)n2)n1 [NSSy6730, (2-((4,4-difluorocyclohexyl)amino)-6-(4-methylthiazol-2-yl)pyridin-4-yl) methanol]",++ (++ means 200 nM-1000 nM)
8,"Cc1ccc(-c2nc(NC3CCC(F)(F)CC3)cc(C(C)O)n2)o1 (centres unmarked) [IN10971-088-P1, 1-(6-((4,4-difluorocyclohexyl)amino)-2-(5-methylfuran-2-yl)pyrimidin-4-yl) ethan-1-ol]",+ (+ means >1 uM)
9,Cc1ccn(-c2nc(N[C@H]3CC[C@H](C(N)=O)CC3)cc(N3CCOCC3)n2)n1 [NSSy6539],+ (+ means >1 uM)
10,"Cc1ccn(-c2nc(NC3CCC(F)(F)CC3)cc(OC3CC(F)(F)C3)n2)n1 [NSSy5893, 6-(3,3-difluorocyclobutoxy)-N-(4,4-difluorocyclohexyl)-2-(3-methyl-1H-pyrazol-1-yl)pyrimidin-4-amine]",++ (++ means 200 nM-1000 nM)
11,Cc1csc(-c2cc(C(O)c3ncco3)cc(NC3CCC(F)(F)CC3)n2)n1 (centres unmarked) [NSSy6563],++ (++ means 200 nM-1000 nM)
12,Cc1ccn(-c2nc(N[C@H]3C[C@@H]4CC[C@H]3O4)cc(N3CCOCC3)n2)n1 [NSSy6446],+ (+ means >1 uM)
13,Cc1ccn(-c2nc(NC(C)C)cc(N3CCOC(CO)C3)n2)n1 (centres unmarked) [IN10882-057-P1],+ (+ means >1 uM)
14,"Cc1csc(-c2ncc(O)c(NC3CCC(F)(F)CC3)n2)n1 [IN11125-095-P1, 4-((4,4-difluorocyclohexyl)amino)-2-(4-methylthiazol-2-yl)pyrimidin-5-ol]",+ (+ means >1 uM)
15,Cc1csc(-c2cc(CN(C)C=O)cc(NC3CCC(F)(F)CC3)n2)n1 [IN11133-069-P1],+++ (+++ means <200 nM)
16,Cc1ccn(-c2cc(C(C)(C)O)cc(NC3CCC(F)(F)CC3)n2)n1 [NSSy5846],++ (++ means 200 nM-1000 nM)
17,Cc1csc(-c2cc(N(C)C3COC3)cc(NC3CCC(F)(F)CC3)n2)n1 [NSSy6288],++ (++ means 200 nM-1000 nM)
18,Cc1ccn(-c2nc(NC3CC4CCC3O4)cc(N3CCOCC3)n2)n1 (centres unmarked) [NSSy6420],+ (+ means >1 uM)
19,"Cc1csc(-c2cc(C(O)c3nnc(C)o3)cc(NC3CCC(F)(F)CC3)n2)n1 (centres unmarked) [NSSy6750, (2-((4,4-difluorocyclohexyl)amino)-6-(4-methylthiazol-2-yl)pyridin-4-yl)(5-methyl-1,3,4-oxadiazol-2-yl)methanol]",++ (++ means 200 nM-1000 nM)
20,Cc1ccn(-c2nc(C(C)O)cc(N(C)C3CCCCC3)n2)n1 (centres unmarked) [IN10880-064-P1],+ (+ means >1 uM)
21,Cc1ccn(-c2cc(N3CC4CCCC4C3)nc(NC3CCC(F)(F)CC3)n2)n1 (centres unmarked) [NSSy6584],+ (+ means >1 uM)

# Continued, values first:
row,SC100 (μM),Compound
1,++ (++ means 200 nM-1000 nM),COC(=O)NCCOc1cc(NC2CCC(F)(F)CC2)nc(-c2nc(C)cs2)n1 [IN11039-009-P1]
2,+ (+ means >1 uM),"COC(=O)N1CC(Oc2cc(NC3CCC(C(F)(F)F)CC3)nc(-c3nc(C)cs3)n2)C1 (centres unmarked) [NSSy6078, methyl 3-((2-(4-methylthiazol-2-yl)-6-((4-(trifluoromethyl)cyclohexyl)amino)pyrimidin-4-yl)oxy) azetidine-1-carboxylate]"
3,++ (++ means 200 nM-1000 nM),"COc1cc(NC2CCC(F)(F)CC2)nc(-c2nc(C3CC3)cs2)n1 [IN11147-054-P1, 2-(4-cyclopropylthiazol-2-yl)-N-(4,4-difluorocyclohexyl)-6-methoxypyrimidin-4-amine]"
4,++ (++ means 200 nM-1000 nM),"Cc1ccn(-c2cc(COC(N)=O)cc(NC3CCC(F)(F)CC3)n2)n1 [NSSy6891, (2-((4,4-difluorocyclohexyl)amino)-6-(3-methyl-1H-pyrazol-1-yl)pyridin-4-yl)methyl carbamate]"
5,++ (++ means 200 nM-1000 nM),COC(=O)N1CC(Oc2cc(NC3CCC(F)(F)CC3)nc(-c3nc(C)ns3)n2)C1 [NSSy5857]
6,+ (+ means >1 uM),"CC(=O)N1CCN(c2cc(-c3cccc(C)n3)nc(NC3CCC(F)(F)CC3)n2)CC1 [NSSy6989, 1-(4-(2-((4,4-difluorocyclohexyl)amino)-6-(6-methylpyridin-2-yl)pyrimidin-4-yl)piperazin-1-yl)ethan-1-one]"
7,++ (++ means 200 nM-1000 nM),"COc1ccn(-c2nc(C)cc(NC3CCC(F)(F)CC3)n2)n1 [NSSy6994, N-(4,4-difluorocyclohexyl)-2-(3-methoxy-1H-pyrazol-1-yl)-6-methylpyrimidin-4-amine]"
8,++ (++ means 200 nM-1000 nM),Cc1csc(-c2nc(NC3CCC(F)(F)CC3)cc(OC3COC3)n2)n1 [IN11079-033-P1]
9,+ (+ means >1 uM),"COC(=O)N1CC(Oc2cc(NC3CCC(F)(F)CC3)nc(-c3nc(C)no3)n2)C1 [NSSy5887, methyl 3-((6-((4,4-difluorocyclohexyl)amino)-2-(3-methyl-1,2,4-oxadiazol-5-yl)pyrimidin-4-yl)oxy)azetidine-1-carboxylate]"
10,+++ (+++ means <200 nM),COC(=O)N1CCC(c2cc(NC3CCC(F)(F)CC3)nc(-n3ccc(C)n3)n2)CC1 [NSSy6982]
11,++ (++ means 200 nM-1000 nM),CSc1cc(NC2CCC(F)(F)CC2)nc(-n2ccc(C)n2)n1 [IN11059-070-P1]
